Consider 23 compounds from ChEMBL document CHEMBL1268828, “Synthesis of novel pyrrole and pyrrolo[2,3-d]pyrimidine derivatives bearing sulfonamide moiety for evaluation as anticancer and radiosensitizing agents” (Bioorg Med Chem Lett, 2010).

Molecules are shown by their SMILES.

For test [1], the system named is HepG2. In words: Anticancer activity against human HepG2 cells assessed as viable cells after 48 hrs at 25 uM by SRB assay relative to control. Conditions: HepG2, 48 h, read-out: Activity. It is filed as functional.
For test [2], the system named is HepG2. Put plainly: Anticancer activity against human HepG2 cells assessed as viable cells after 48 hrs at 40 uM by SRB assay relative to control. The format is functional. Conditions: HepG2, 48 h, read-out: Activity. A general note: Sulforhodamine B stains cellular protein and so reports cell mass.
Test [3] deals with HepG2. In words: Cytotoxicity against human HepG2 cells assessed as inhibition of cell proliferation after 24 hrs by SRB assay. The format is functional, cell-based. Conditions: HepG2, 24 h.
The test system of test [4] is HepG2. Put plainly: Anticancer activity against 4 Gy gamma-irradiated human HepG2 cells assessed as viable cells after 48 hrs at 40 uM by SRB assay (reference value: 21.2%). The format is functional. Conditions: HepG2, light or radiation study, read-out: Activity.
Test [5] concerns MCF7. In words: Cytotoxicity against human MCF7 cells assessed as inhibition of cell proliferation after 24 hrs by SRB assay. The format is functional, cell-based. Conditions: MCF7, 24 h.
Test [6] deals with HepG2. Put plainly: Anticancer activity against human HepG2 cells assessed as viable cells after 48 hrs at 5 uM by SRB assay relative to control. It is filed as functional. Conditions: HepG2, 48 h, read-out: Activity.
Test [7] has as its system HepG2. Put plainly: Anticancer activity against 4 Gy gamma-irradiated human HepG2 cells assessed as viable cells after 48 hrs at 5 uM by SRB assay (reference value: 21.2%). To be noted: HepG2, light or radiation study, read-out: Activity. It is filed as functional.
The test system of test [8] is HepG2. Put plainly: Anticancer activity against 4 Gy gamma-irradiated human HepG2 cells assessed as viable cells after 48 hrs at 25 uM by SRB assay (reference value: 21.2%). The format is functional. To be noted: HepG2, light or radiation study, read-out: Activity.
Test [9] has as its system HepG2. Put plainly: Anticancer activity against human HepG2 cells assessed as viable cells after 48 hrs at 12.5 uM by SRB assay relative to control. It is filed as functional. Conditions: HepG2, 48 h, read-out: Activity.
In test [10] the test system is HepG2. In words: Anticancer activity against 4 Gy gamma-irradiated human HepG2 cells assessed as viable cells after 48 hrs at 12.5 uM by SRB assay (reference value: 21.2%). The format is functional. Conditions: HepG2, light or radiation study, read-out: Activity.
Test [11] has as its system MCF7. Put plainly: Anticancer activity against human MCF7 cells assessed as viable cells after 48 hrs at 5 uM by SRB assay relative to control. It is filed as functional. Conditions: MCF7, 48 h, read-out: Activity.
Test [12] concerns MCF7. In words: Anticancer activity against 4 Gy gamma-irradiated human MCF7 cells assessed as viable cells after 48 hrs at 12.5 uM by SRB assay (reference value: 7.3%). It is filed as functional. To be noted: MCF7, light or radiation study, read-out: Activity.
The subject of test [13] is MCF7. Put plainly: Anticancer activity against human MCF7 cells assessed as viable cells after 48 hrs at 12.5 uM by SRB assay relative to control. The format is functional. Conditions: MCF7, 48 h, read-out: Activity.
Test [14] has as its system MCF7. Put plainly: Anticancer activity against 4 Gy gamma-irradiated human MCF7 cells assessed as viable cells after 48 hrs at 40 uM by SRB assay (reference value: 7.3%). It is filed as functional. To be noted: MCF7, light or radiation study, read-out: Activity.
The test system of test [15] is MCF7. Put plainly: Anticancer activity against human MCF7 cells assessed as viable cells after 48 hrs at 25 uM by SRB assay relative to control. Conditions: MCF7, 48 h, read-out: Activity. It is filed as functional.
Test [16] has as its system MCF7. In words: Anticancer activity against 4 Gy gamma-irradiated human MCF7 cells assessed as viable cells after 48 hrs at 5 uM by SRB assay (reference value: 7.3%). The format is functional. To be noted: MCF7, light or radiation study, read-out: Activity.
The test system of test [17] is MCF7. In words: Anticancer activity against 4 Gy gamma-irradiated human MCF7 cells assessed as viable cells after 48 hrs at 25 uM by SRB assay (reference value: 7.3%). The format is functional. Conditions: MCF7, light or radiation study, read-out: Activity.
The subject of test [18] is MCF7. In words: Anticancer activity against human MCF7 cells assessed as viable cells after 48 hrs at 40 uM by SRB assay relative to control. It is filed as functional. To be noted: MCF7, 48 h, read-out: Activity.
Test [19] concerns HepG2. In words: Anticancer activity against 4 Gy gamma-irradiated human HepG2 cells assessed as viable cells after 48 hrs at 25 uM by SRB assay (reference value: 18.73%). The format is functional. To be noted: HepG2, light or radiation study, read-out: Activity.
Test [20] relates to HepG2. Put plainly: Anticancer activity against 4 Gy gamma-irradiated human HepG2 cells assessed as viable cells after 48 hrs at 40 uM by SRB assay (reference value: 18.73%). The format is functional. Conditions: HepG2, light or radiation study, read-out: Activity.
Test [21] concerns HepG2. Put plainly: Anticancer activity against 4 Gy gamma-irradiated human HepG2 cells assessed as viable cells after 48 hrs at 12.5 uM by SRB assay (reference value: 18.73%). It is filed as functional. Conditions: HepG2, light or radiation study, read-out: Activity.
For test [22], the system named is HepG2. In words: Anticancer activity against 4 Gy gamma-irradiated human HepG2 cells assessed as viable cells after 48 hrs at 5 uM by SRB assay (reference value: 18.73%). It is filed as functional. To be noted: HepG2, light or radiation study, read-out: Activity.

As for `Nc1nc(=O)[nH]c2c1c(-c1ccccc1)cn2-c1ccc(S(=O)(=O)Nc2nccs2)cc1`, the viability at 25 µM in the test with HepG2 [1] is 63.9%; with HepG2 [8], 78.3%. Besides, the viability at 40 µM in the test on HepG2 [2] is 63.6%; in the test on HepG2 [4], 81.7%. Further, the IC50 stood at 3.49 µM in the test on HepG2 [3] and 8.32 µM in the test on MCF7 [5]. For the same compound, the viability at 5 µM in the test with HepG2 [6] is 22.3%; in the test with HepG2 [7], 61.7%. Further, the viability at 12.5 µM with HepG2 [9] stood at 47.7%; in the test on HepG2 [10], 69.2%.
`Cc1nc2c(c(-c3ccccc3)cn2-c2ccc(S(=O)(=O)Nc3ccccn3)cc2)c(=O)[nH]1`: the IC50 with HepG2 [3] worked out at 3.15 µM; in the test with MCF7 [5], 5.1 µM.
The like results for `Nc1nc(=O)[nH]c2c1c(-c1ccccc1)cn2-c1ccc(S(=O)(=O)Nc2ccccn2)cc1` were, in that order, 4.3 µM and 3.9 µM.
In the same order, the values of `Nc1nc(=S)[nH]c2c1c(-c1ccccc1)cn2-c1ccc(S(=O)(=O)Nc2nccs2)cc1` are 4.12 µM and 3.12 µM.
In the same order, the values of `Nc1nc(=S)[nH]c2c1c(-c1ccccc1)cn2-c1ccc(S(=O)(=O)Nc2ccccn2)cc1` are 4.1 µM and 3.8 µM.
For the compound `O=C(CNc1ccc(S(=O)(=O)Nc2nccs2)cc1)c1ccccc1`, the IC50 in the test on HepG2 [3] is 6.78 µM; with MCF7 [5], 8.89 µM.
In the same order, the values of `O=C(CNc1ccc(S(=O)(=O)Nc2ccccn2)cc1)c1ccccc1` are 6.75 µM and 7.56 µM.
In the case of `N#Cc1c(-c2ccccc2)cn(-c2ccc(S(=O)(=O)Nc3nccs3)cc2)c1N`, the viability at 5 µM in the test with MCF7 [11] worked out at 11.3%; with MCF7 [16], 41.5%. The viability at 12.5 µM came out at 65.3% with MCF7 [12] and 42.5% with MCF7 [13]. In addition, the viability at 40 µM in the test on MCF7 [14] is 85.8%; with MCF7 [18] it was 72%. The figures for the 50% inhibitory concentration (IC50) with HepG2 [3] and in the test with MCF7 [5] were 5.36 µM and 3.49 µM, respectively. Also, the viability at 25 µM was determined as 71.3% in the test with MCF7 [15] and 82.3% in the test on MCF7 [17].
On to `N#Cc1c(-c2ccccc2)cn(-c2ccc(S(=O)(=O)Nc3ccccn3)cc2)c1N`, for which the values for the IC50 in the test on HepG2 [3] and with MCF7 [5] were 5.3 µM and 4.6 µM, respectively.
In the same order, the values of `O=c1[nH]cnc2c1c(-c1ccccc1)cn2-c1ccc(S(=O)(=O)Nc2nccs2)cc1` are 5.3 µM and 6.21 µM.
In the same order, the values of `O=c1[nH]cnc2c1c(-c1ccccc1)cn2-c1ccc(S(=O)(=O)Nc2ccccn2)cc1` are 4.67 µM and 5.32 µM.
For the compound `Nc1ncnc2c1c(-c1ccccc1)cn2-c1ccc(S(=O)(=O)Nc2nccs2)cc1`, the IC50 with HepG2 [3] was 4.24 µM; in the test on MCF7 [5] it was 6.45 µM.
The like results for `Nc1ncnc2c1c(-c1ccccc1)cn2-c1ccc(S(=O)(=O)Nc2ccccn2)cc1` were, in that order, 4.09 µM and 6.34 µM.
In the same order, the values of `N#Cc1c(-c2ccccc2)cn(-c2ccc(S(=O)(=O)Nc3nccs3)cc2)c1NC(N)=O` are 4.02 µM and 8.05 µM.
With `N#Cc1c(-c2ccccc2)cn(-c2ccc(S(=O)(=O)Nc3ccccn3)cc2)c1NC(N)=O`, the 50% inhibitory concentration (IC50) turned out to be 4.12 µM with HepG2 [3] and 7.34 µM in the test with MCF7 [5].
The like results for `CC(=O)Nc1c(C#N)c(-c2ccccc2)cn1-c1ccc(S(=O)(=O)Nc2nccs2)cc1` were, in that order, 4.02 µM and 7.24 µM.
Take `CC(=O)Nc1c(C#N)c(-c2ccccc2)cn1-c1ccc(S(=O)(=O)Nc2ccccn2)cc1`: the viability at 25 µM in the test on HepG2 [1] stood at 62.7%; in the test on HepG2 [8] it was 82.5%. For the same compound, the viability at 40 µM with HepG2 [2] is 69.9%; in the test on HepG2 [4] it was 82.5%. Also, the IC50 was 3.49 µM in the test on HepG2 [3] and 11.8 µM with MCF7 [5]. Further, the viability at 5 µM worked out at 30.3% in the test on HepG2 [6] and 57.4% with HepG2 [7]. In addition, the viability at 12.5 µM in the test with HepG2 [9] amounted to 53.5%; with HepG2 [10], 69.5%.
Turning to `N#Cc1c(-c2ccccc2)cn(-c2ccc(S(=O)(=O)Nc3nccs3)cc2)c1NC(=O)CCC(=O)O`, the viability at 25 µM in the test with HepG2 [1] turned out to be 36%; in the test with HepG2 [8], 71.8%. In addition, the viability at 40 µM in the test with HepG2 [2] worked out at 49.6%; in the test with HepG2 [4] it was 79.4%. Besides, the IC50 with HepG2 [3] amounted to 3.75 µM; in the test on MCF7 [5], 9.12 µM. Further, the viability at 5 µM in the test on HepG2 [6] came out at 25%; in the test with HepG2 [7], 60.6%. Besides, the viability at 12.5 µM stood at 39.6% in the test with HepG2 [9] and 72.6% in the test with HepG2 [10].
`N#Cc1c(-c2ccccc2)cn(-c2ccc(S(=O)(=O)Nc3ccccn3)cc2)c1NC(=O)CCC(=O)O`: the viability at 25 µM with HepG2 [1] is 72%; in the test on HepG2 [19] it was 89.2%. The viability at 40 µM in the test on HepG2 [2] was found to be 78%; with HepG2 [20] it was 87.7%. The values for the IC50 in the test with HepG2 [3] and in the test on MCF7 [5] were 3.75 µM and 8.32 µM, respectively. In addition, the viability at 5 µM is 15.1% with HepG2 [6] and 81.4% in the test with HepG2 [22]. The viability at 12.5 µM came to 60.3% in the test on HepG2 [9] and 84.4% in the test on HepG2 [21].
Regarding `N#Cc1c(-c2ccccc2)cn(-c2ccc(S(=O)(=O)Nc3nccs3)cc2)c1N1C(=O)CCC1=O`, the IC50 was determined as 4.56 µM with HepG2 [3] and 6.71 µM with MCF7 [5].
For the compound `N#Cc1c(-c2ccccc2)cn(-c2ccc(S(=O)(=O)Nc3ccccn3)cc2)c1N1C(=O)CCC1=O`, the IC50 came out at 5.36 µM with HepG2 [3] and 9.93 µM in the test with MCF7 [5].
In the same order, the values of `Cc1nc2c(c(-c3ccccc3)cn2-c2ccc(S(=O)(=O)Nc3nccs3)cc2)c(=O)[nH]1` are 3.39 µM and 5.8 µM.
Consider `COc1cccc2c1C(=O)c1c(O)c3c(c(O)c1C2=O)C[C@@](O)(C(=O)CO)C[C@@H]3O[C@H]1C[C@H](N)[C@H](O)[C@H](C)O1` [DOXORUBICIN], for which the IC50 with HepG2 [3] is 5.23 µM.

Broadly, the IC50 is the concentration needed to halve the response being measured.
